Each block holds one molecule with its values, some of them ahead of it.
Assays:
[1] = Metabolic stability in rat liver microsomes; type: in vitro ADME
[2] = molecular target: PDE1 F392A (Homo sapiens, UniProt Q14123, F398A); assay: Inhibition of PDE1 mutant by 10a; type: biochemical
[3] = molecular target: PDE1 Y228A (Homo sapiens, UniProt Q14123, Y227A); assay: Inhibition of PDE1 mutant by 10a; type: biochemical
[4] = molecular target: PDE1 Q421A (Homo sapiens, UniProt Q14123, Q427A); assay: Inhibition of PDE1 mutant by 10a; type: biochemical; conditions: Q421A vs wild type
Sequence of PDE1 Q421A (Q14123 147-531 Q427A): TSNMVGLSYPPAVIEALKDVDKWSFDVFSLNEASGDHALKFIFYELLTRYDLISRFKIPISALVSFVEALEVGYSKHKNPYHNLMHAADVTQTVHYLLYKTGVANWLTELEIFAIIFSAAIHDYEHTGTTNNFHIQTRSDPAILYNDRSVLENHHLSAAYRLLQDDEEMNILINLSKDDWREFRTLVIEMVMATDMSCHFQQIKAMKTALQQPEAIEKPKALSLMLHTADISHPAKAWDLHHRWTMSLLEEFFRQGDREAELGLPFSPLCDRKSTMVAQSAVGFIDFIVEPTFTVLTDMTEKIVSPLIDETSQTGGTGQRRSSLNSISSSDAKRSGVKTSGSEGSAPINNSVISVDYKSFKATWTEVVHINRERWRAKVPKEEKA

Sequence of PDE1 F392A (Q14123 147-531 F398A): as the sequence (Q14123 147-531 Q427A) above, with F252A, A281Q counted along it
Sequence of PDE1 Y228A (Q14123 147-531 Y227A): as the sequence (Q14123 147-531 Q427A) above, with Y81A, A281Q counted along it

- half-life [1]: 13.5 min
Structure (SMILES): O=C1O/C(=C\c2cc(F)ccc2OCCN2CC[C@@H](F)C2)c2cc(Cc3cccc(F)c3)[nH]c(=O)c21 [11c]

- half-life [1]: 8 min
Structure (SMILES): Cc1cc2c(c(=O)[nH]1)C(=O)O/C2=C\c1cc(F)ccc1OCCN1CCOCC1 [compound 11a]

- IC50 [2]: 0.231 µM
- loss of binding affinity ([2]; F392A vs wild type): 14 fold
- IC50 [3]: 0.043 µM
- loss of binding affinity ([3]; Y228A vs wild type): ~3 fold
- loss of binding affinity [4]: 8 fold
Structure (SMILES): Cc1cc2c(c(=O)[nH]1)C(=O)O/C2=C\c1cc(F)ccc1OC(C)C [compound 10a]

- half-life [1]: 29.8 min
Structure (SMILES): O=C1O/C(=C\c2cc(F)ccc2OCCN2CCOCC2)c2cc(Cc3cccc(F)c3)[nH]c(=O)c21 [compound 11b]
